According to PubChem BioAssay AID1963873 (Molecular Pharmacology Branch, DTP, NCI, 2024):

Tested on: 276233-004-R-J1-PDC KRAS spheroids with HUVEC/MSC, viability
Test: Anticancer human tumor 276233-004-R-J1-PDC patient-derived colon adenocarcinoma cell line growth inhibition [KRAS2]
Settings: for IC50: curve of first compound; for viability, T/C: stronger effect = lower value
How it was run: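 KRAS-mutant tumor cells were grown as spheroids with HUVEC endothelial cells and human MSCs as stroma. Targeted agents were tested alone and with KRAS pathway inhibitors. Doses started at or near clinical Cmax, or 10 microM, descending half-log.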
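Note: cells exposed to agents for seven days before viability read.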
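Throughout, for viability, T/C: 100% = DMSO vehicle control wells and lower values mean fewer viable cells.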

With `COc1cc(Nc2ncc3c(n2)-c2ccc(Cl)cc2C(c2c(F)cccc2OC)=NC3)ccc1C(=O)O` + CNCc1ccccc1-c1csc(C(C)Nc2nc(C)nc3cc(OC)c(OC)cc23)c1 the IC50 (second compound 0.1 µM) was greater than 10 µM, the IC50 (second compound 0.316 µM) was greater than 10 µM and the IC50 (second compound 1 µM) was greater than 10 µM. It also gave an IC50 (second compound 3.16 µM) of less than 0.0316 µM, an IC50 (second compound 10 µM) of less than 0.0316 µM and a viability, T/C (second compound 0.1 µM, first compound 0.0316 µM) of 103%. For the same compound, the viability, T/C (second compound 0.1 µM, first compound 0.1 µM) was 110%, the viability, T/C (second compound 0.1 µM, first compound 0.316 µM) was 75.7% and the viability, T/C (second compound 0.1 µM, first compound 1 µM) was 104%. The viability, T/C (second compound 0.1 µM, first compound 3.16 µM) was 95.7%, the viability, T/C (second compound 0.1 µM, first compound 10 µM) was 84.2% and the viability, T/C (second compound 0.316 µM, first compound 0.0316 µM) was 107%. It also gave a viability, T/C (second compound 0.316 µM, first compound 0.1 µM) of 93%, a viability, T/C (second compound 0.316 µM, first compound 0.316 µM) of 99.1% and a viability, T/C (second compound 0.316 µM, first compound 1 µM) of 97.7%. It also gave a viability, T/C (second compound 0.316 µM, first compound 3.16 µM) of 91.9%, a viability, T/C (second compound 0.316 µM, first compound 10 µM) of 94.6% and a viability, T/C (second compound 1 µM, first compound 0.0316 µM) of 80.4%. It also gave a viability, T/C (second compound 1 µM, first compound 0.1 µM) of 86.1%, a viability, T/C (second compound 1 µM, first compound 0.316 µM) of 111% and a viability, T/C (second compound 1 µM, first compound 1 µM) of 85%. The viability, T/C (second compound 1 µM, first compound 3.16 µM) was 72.1%, the viability, T/C (second compound 1 µM, first compound 10 µM) was 66.3% and the viability, T/C (second compound 3.16 µM, first compound 0.0316 µM) was 5.21%. It also gave a viability, T/C (second compound 3.16 µM, first compound 0.1 µM) of 1.97%, a viability, T/C (second compound 3.16 µM, first compound 0.316 µM) of 1.67% and a viability, T/C (second compound 3.16 µM, first compound 1 µM) of 4.48%. The viability, T/C (second compound 3.16 µM, first compound 3.16 µM) was 4.94%, the viability, T/C (second compound 3.16 µM, first compound 10 µM) was 0.76% and the viability, T/C (second compound 10 µM, first compound 0.0316 µM) was 2.44%. The viability, T/C (second compound 10 µM, first compound 0.1 µM) was 3.58%, the viability, T/C (second compound 10 µM, first compound 0.316 µM) was 0.22% and the viability, T/C (second compound 10 µM, first compound 1 µM) was 0.22%. For the same compound, the viability, T/C (second compound 10 µM, first compound 3.16 µM) was 0.73% and the viability, T/C (second compound 10 µM, first compound 10 µM) was 0.99%.
